Patent US20220112445A1 (priority 2019, published 2022)
Read-outs that look alike come from different tables or passages of the source.

How the values were obtained:
Bacillus spores [1] = system: Bacillus spores
Description: Other embodiments of the treatment formula were also tested using varying amounts of hydrogen peroxide.

Bacillus subtilis spores = conditions: 20 mg/I hydrogen peroxide for 60 minutes; cited from earlier work
[2] = system: Bacillus subtilis subsp. globigii; conditions: cited from earlier work
Bacillus spores [3] = conditions: cited from earlier work

OO [H2O2, hydrogen peroxide]
Spore Survival 5 Minutes (Bacillus spores [1]; 0.285 Percent H2O2, 5 minutes after mixing): Excellent | Spore Survival 2 Hours (Bacillus spores [1]; 0.285 Percent H2O2, 2 hours after mixing): Excellent | Spore Survival 4 Hours (Bacillus spores [1]; 0.285 Percent H2O2, 4 hours after mixing): Excellent | Spore Survival 6 Hours (Bacillus spores [1]; 0.285 Percent H2O2, 6 hours after mixing): Excellent | Spore Survival 24 Hours (Bacillus spores [1]; 0.285 Percent H2O2, 24 hours after mixing): Excellent | Spore Survival 5 Minutes (Bacillus spores [1]; 0.71 Percent H2O2, 5 minutes after mixing): Excellent | Spore Survival 2 Hours (Bacillus spores [1]; 0.71 Percent H2O2, 2 hours after mixing): Good | Spore Survival 4 Hours (Bacillus spores [1]; 0.71 Percent H2O2, 4 hours after mixing): Fair | Spore Survival 6 Hours (Bacillus spores [1]; 0.71 Percent H2O2, 6 hours after mixing): Fair | Spore Survival 24 Hours (Bacillus spores [1]; 0.71 Percent H2O2, 24 hours after mixing): Poor | spore viability (Bacillus spores [1]; 1.43% hydrogen peroxide level): not viable | Spore Survival 5 Minutes (Bacillus spores [1]; 1.43 Percent H2O2, 5 minutes after mixing): 0 | Spore Survival 2 Hours (Bacillus spores [1]; 1.43 Percent H2O2, 2 hours after mixing): 0 | Spore Survival 4 Hours (Bacillus spores [1]; 1.43 Percent H2O2, 4 hours after mixing): 0 | Spore Survival 6 Hours (Bacillus spores [1]; 1.43 Percent H2O2, 6 hours after mixing): 0 | Spore Survival 24 Hours (Bacillus spores [1]; 1.43 Percent H2O2, 24 hours after mixing): 0 | kill of Bacillus subtilis spores (Bacillus subtilis spores): no kill | effectiveness against Bacillus subtilis subsp. globigii ([2]; 10% hydrogen peroxide at room temperature): ineffective | concentration required for the destruction of these spores ([2]; high temperature (80° C.)): 35% | concentration exponent (Bacillus spores [3]; 25° C., levels of between 10 and 20% (w/v)): about 1.5 | bactericidal / sporicidal activity (Bacillus spores [3]; concentration of 6% (w/vol)): bactericidal, but only slowly sporicidal
